Assay results published in US7375190B2, “Recombinant protein and method of screening for agents that modulate polypeptide aggregation” (priority 2006, dated 2008).
Structures can show the parent of a compound that is named as a salt.

Key:
[1] = system: polyglutamine protein aggregation; details: cited from earlier work
neurodegeneration = details: in vivo; cited from earlier work
97Q-ADE2 [2] = test: filter trap assay on cellulose acetate membrane for 97Q-ADE2 aggregates; type: cell-based, yeast
Experimental: Therefore, this unique physical characteristic of the aggregates could be detected biochemically using a filter trap assay in which only proteins with size more than 0.2 micrometers retain on a cellulose acetate membrane (Scherzinger et al., 1997, Cell 90, 549-558). In order to validate the colony-color phenotypes observed in the genetic experiments were caused by the formation of ADE2 protein aggregates, cell lysates were prepared and subjected to filter trap assays.
The experimental procedures for slot-blot assay were following: Nitrocellulose (NC) membrane was pre-wetted with TBS (20 mM Tris, 500 mM NaCl), then assembled into Bio-Dot apparatus (BIO-RAD) in which 3 filter papers (BIO-RAD) were on the bottom as a support and NC membrane was on the top. After assembly of the Bio-Dot apparatus, 200 μl TBS buffer was added into each loading well to rinse the membrane followed by the addition of diluted cell lysate (3 μl prepared cell lysate mixed with 197 μl TBS buffer). When the lysate has completely drained from the apparatus by gravity, 200 μl TBS buffer was loaded again to reduce residual proteins within the loading well. Following the step of TBS wash, 200 μl TTBS (20 mM Tris, 500 mM NaCl, and 0.05% Tween 20) was applied as washing buffer and the solution was sucked out by vacuum pump. The membrane was subjected to TTBS wash twice followed by removal of the membrane from the Bio-Dot apparatus and detection of trapped proteins by Western blotting. […] The signal for the immuno-blotting was detected by enhanced chemiluminescence (ECL) reagents. […]
In order to confirm the change of phenotype observed was caused by the alteration of protein solubility, the combination of filter trap and slot blot assays was applied for detecting the level of polyglutamine protein aggregates within these cells. […] Thus, the reduction of polyglutamine protein aggregation caused by Hsp104p inhibitor was tightly associated with the change of cellular phenotype and could be visibly detected by the colony color system.

97Q-ADE2 [3] = test: colony-color assay of yeast cells expressing 97Q-ADE2 on adenine low medium; type: cell-based
25Q-ADE2 = test: colony-color assay of yeast cells expressing 25Q-ADE2 on adenine low medium; type: cell-based; details: guanidine hydrochloride 0, 1, 3 and 5 mM; 10-cm Petri dish; FIG. 3(A)
Hsp104p = molecular target: T1, Hsp104p (Saccharomyces cerevisiae, UniProt P31539); details: 3-5 mM; cited from earlier work
T1 construct: cellular Hsp104p is required for two similar types of protein aggregation in yeast cells; host or cells: yeast cells (endogenous Hsp104p)
T1 sequence (P31539 whole entry): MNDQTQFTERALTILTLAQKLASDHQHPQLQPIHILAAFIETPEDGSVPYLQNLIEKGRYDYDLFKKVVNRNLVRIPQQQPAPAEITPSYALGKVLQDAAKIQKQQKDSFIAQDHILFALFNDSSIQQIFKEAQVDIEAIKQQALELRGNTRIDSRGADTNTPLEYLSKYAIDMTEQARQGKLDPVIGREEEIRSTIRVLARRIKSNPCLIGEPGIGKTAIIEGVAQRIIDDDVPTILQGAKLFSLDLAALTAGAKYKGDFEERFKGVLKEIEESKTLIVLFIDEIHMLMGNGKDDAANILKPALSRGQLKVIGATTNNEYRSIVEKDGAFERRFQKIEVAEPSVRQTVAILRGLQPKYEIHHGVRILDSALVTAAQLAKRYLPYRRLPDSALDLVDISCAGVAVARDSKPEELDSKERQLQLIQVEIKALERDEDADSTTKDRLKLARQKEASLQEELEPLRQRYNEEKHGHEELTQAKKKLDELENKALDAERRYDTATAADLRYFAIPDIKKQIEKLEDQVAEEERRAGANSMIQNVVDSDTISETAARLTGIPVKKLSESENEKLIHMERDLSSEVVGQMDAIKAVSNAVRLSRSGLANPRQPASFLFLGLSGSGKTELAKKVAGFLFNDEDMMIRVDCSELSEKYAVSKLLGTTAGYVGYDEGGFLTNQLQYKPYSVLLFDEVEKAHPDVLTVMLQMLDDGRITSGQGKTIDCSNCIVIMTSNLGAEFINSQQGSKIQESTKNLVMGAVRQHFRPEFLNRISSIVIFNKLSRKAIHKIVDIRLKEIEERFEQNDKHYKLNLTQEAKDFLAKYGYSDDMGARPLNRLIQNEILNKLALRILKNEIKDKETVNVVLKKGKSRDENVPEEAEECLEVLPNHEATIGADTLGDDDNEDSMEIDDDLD

[4] = system: cells that did not express 97Q-ADE2; test: colony-color control on glucose media, cells that did not express 97Q-ADE2, 48-well microplate; type: cell-based, yeast; details: 0, 1, 3 and 5 mM, FIG. 4 first row
Experimental: Plate preparation for colony-color assay was as following: 6.7 g of yeast nitrogen base lacking amino acids, 20 g of Bacto agar and 1.3 g of drop-out mix that contain amino acids supplement necessary for viable and selective growth of the transformed cells were added to 900 ml of H2O according to Burke et al. (Burke et al., Methods in Yeast Genetics, 2000 Edition, Gold Spring Harbor Laboratory Press, 171-175). Carbon source, either glucose or galactose, and filter-sterilized adenine were added after autoclaving to final concentrations of 2% and 4 mg/l, respectively. For preparation of media containing guanidine hydrochloride, the chemical reagent was added simultaneously with carbon source and adenine to final concentrations of […] as indicated. There were about 20 ml of medium in each 10 cm petri dish and 0.2 ml of medium in each well of 48-well microplate.
For the purpose of drug screening, small volume of medium for examining the colony color phenotype of cells has advantage in saving the amount of candidate compound tested. […] With glucose or galactose as carbon source, the transformed cells were grown on adenine low media containing guanidine hydrochloride at a final concentration of 0, 1, 3 and 5 mM as indicated. […]

Compound | polyglutamine protein aggregation [1] | neurodegeneration in an animal model (neurodegeneration) | 97Q-ADE2 fusion protein trapped on cellulose acetate membrane (97Q-ADE2 [2]; 1 mM, FIG. 3(B) lane 3) | 97Q-ADE2 fusion protein trapped on cellulose acetate membrane (97Q-ADE2 [2]; 3 mM, continuous treatment, FIG. 3(B) lane 4) | 97Q-ADE2 fusion protein trapped on cellulose acetate membrane (97Q-ADE2 [2]; 5 mM, continuous treatment, FIG. 3(B) lane 5) | cellular color of 97Q-ADE2 expressing cells (97Q-ADE2 [3]; 0, 1, 3 and 5 mM, 48-well microplate, galactose, FIG. 4 second row) | appearance of colony color, 97Q-ADE2 versus 25Q-ADE2 cells (97Q-ADE2 [3]; 5 mM, 10-cm Petri dish) | cellular color phenotype of cells expressing 97Q-ADE2 (97Q-ADE2 [3]; guanidine hydrochloride 0, 1, 3 and 5 mM, adenine low media, 10-cm Petri dish, FIG. 3(A)) | colony color of cells expressing 25Q-ADE2 (25Q-ADE2) | activity of Hsp104p (Hsp104p) | colony color of cells that did not express 97Q-ADE2 [4]
C[C@@H](N)[C@H]1CC[C@H](C(=O)Nc2ccncc2)CC1 [Y-27632] | diminished polyglutamine protein aggregation | reduced neurodegeneration | – | – | – | – | – | – | – | – | –
N=C(N)N [guanidine hydrochloride] | – | – | significant amount of the fusion protein was trapped | little | no signal | changed their cellular colors from red to white | indistinguishable between cells expressing 25Q-ADE2 and 97Q-ADE2 | changed from red to pink and white as a function of guanidine hydrochloride concentration | constantly showed colony color of white | substantially reduces the activity of Hsp104p | the cellular phenotype remained the same
